Experimental data taken from patent US9168329B2, “Beta-peptides with antifungal activity” (Wisconsin Alumni Research Foundation, priority 2006, dated 2015).

What was measured:
[1] = tested on: C. albicans strain SC5314; experiment: Assay for biofilm formation in the presence of β-peptide; type: cell-based, Candida albicans
Experimental: The ability of Candida albicans to form biofilms in the presence of β-peptide was tested using a procedure modified from the protocol for testing biofilms pre-formed in 96-well plates. C. albicans strain SC5314 was grown in liquid yeast peptone dextrose (YPD) medium overnight at 30° C., and the cells were washed twice with PBS (pH 7.2). Cells were resuspended in RPMI 1640, and the cell concentration was adjusted to about 2×10^6 cells/mL in RPMI 1640.
Twofold serial dilutions of β-peptide and amphotericin B were prepared in RPMI 1640, and 50 μL of each dilution was added to wells of a 96-well plate. At least three replicates were included. β-Peptide-free control wells were also included. An equal volume of the cell suspension was added to give a final cell concentration of 1×10^6 cells/mL. Plates were covered and placed in a 37° C. incubator for 48 hours.
After allowing biofilms to form for 48 hours, nonadherent cells were removed from the wells by washing the biofilms three times with 200 μL of PBS per well. A 0.5 g/L XTT solution with 1 μM menadione was prepared, and 100 μL was added to each biofilm formation well and to empty wells for XTT background measurements. […] The absorbance of the solution in each well was measured at 490 nm, and the reduction of growth for biofilms grown in the presence of β-peptide and amphotericin B compared to biofilms grown in medium only was calculated from […]

[2] = tested on: Candida albicans (SC5314, ATCC 24433, ATCC 90028); type: cell-based
Experimental: Minimum inhibitory concentration assay. Minimum inhibitory concentrations (MIC) for the β-peptides were determined using the broth microdilution assay described by the Committee for Clinical and Laboratory Standards (formerly known as the National Committee for Clinical Laboratory Standards) (National Committee for Clinical Laboratory Standards Reference method for broth dilution antifungal susceptibility testing of yeasts: approved standard—second edition; NCCLS document M27-A2; NCCLS: Wayne, Pa., 2002). Three strains of Candida albicans were used: SC5314, ATCC 24433, and ATCC 90028. Cells were grown for 24 hours on Sabouraud dextrose agar at 30° C. After 24 hours of growth, the cells were suspended in 0.145 M saline, and the concentration was adjusted to between 1×10^6 cells/mL and 5×10^6 cells/mL in saline. The working suspension was obtained by diluting the suspension 1:1000 in RPMI 1640 (with L-glutamine and without sodium bicarbonate, Invitrogen) buffered with 0.145 mol/L 3-(N-morpholino) propanesulfonic acid (MOPS).
Twofold serial dilutions of stock solutions of α- or β-peptides or amphotericin B (Calbiochem, solubilized in dimethyl sulfoxide) were made in RPMI 1640, and 100 μL aliquots were put into 96-well plates (Falcon). An equal volume of the cell suspension was added to the wells for a total volume of 200 μL. Growth controls and sterility controls were included.
Plates were incubated at 35° C. for 48 h and then visually inspected for fungal growth. […] Experiments were performed in duplicate and repeated on at least two different days.

[3] = tested on: human red blood cells (hRBC); experiment: Hemolysis assay; type: cell-based
Experimental: Hemolysis assay. The hemolysis assay was performed using human red blood cells (hRBC) as described previously (Raguse, et al. J. Am. Chem. Soc. 2002, 124, 12774-12785; Porter, et al. J. Am. Chem. Soc. 2005, 127, 11516-11529). The hRBC were washed three times in TRIS-buffered saline (TBS; 10 mM TRIS, 150 mM NaCl, pH 7.2) and then diluted to a concentration of 1% (v/v) in TBS. The hRBC suspension (80 μL) was added to twofold dilutions of peptides in TBS (20 μL) in a 96-well plate (Falcon). Wells containing hRBC treated with 20 μL TBS provided a negative control, and wells with high concentrations of the peptide melittin (Sigma) served as a positive control. After incubating at 37° C. for 1 h, plates were centrifuged, and 50 μL of the supernatant was diluted with 50 μL of water in a fresh 96-well plate. The absorbance of the diluted supernatant was measured at 405 nm, and the percent hemolysis for each well was calculated from
[formula] where A405^peptide is the absorbance for the supernatant of hRBC treated with peptide, A405^buffer is the absorbance for the supernatant of hRBC in TBS, and A405^completlysis is the average absorbance for the supernatant of cells treated with melittin at concentrations of 50-400 μg/mL. Experiments were performed in duplicate on at least two different days. Biofilm Antifungal Susceptibility Testing

[4] = tested on: Candida albicans biofilms (ATCC 90028, ATCC 24433, SC5314); experiment: Biofilm antifungal susceptibility testing (pre-formed biofilms, XTT); type: cell-based
Experimental: The susceptibility of Candida albicans biofilms to β-peptide treatment was evaluated using procedures based on the method described by Ramage and Lopez-Ribot. (Ramage, G.; Lopez-Ribot, J. L. Methods Mol. Med. 2005, 118, 71-79). ATCC 90028, ATCC 24433, and SC5314 were grown in liquid yeast peptone dextrose (YPD) medium overnight at 30° C. The cells were washed two times with phosphate-buffered saline (PBS, pH 7.2) and resuspended in RPMI 1640 (with L-glutamine and without sodium bicarbonate, Invitrogen) buffered with 0.145 mol/L 3-(N-morpholino) propanesulfonic acid (MOPS). After adjusting the cell suspension to about 1×10^6 cells/mL in RPMI 1640, 100 μL of the cell suspension was added to selected wells of flat-bottom 96-well plates (Falcon), leaving the last column of wells empty for background controls. Plates were covered and incubated at 37° C. for 48 hours to allow biofilms to form.
After formation, biofilms were washed three times with 200 μL of PBS per well to remove nonadherent cells. Twofold serial dilutions of β-peptide in RPMI 1640 were made, and 100 μL was added to the biofilms in the first 10 columns of the 96-well plates. RPMI 1640 without antifungal (100 μL) was added to the wells in column 11 to serve as a positive growth control. Plates were covered and incubated at 37° C. for an additional 48 hours and then washed as before.
A solution of 0.5 g/L of 2,3-bis(2-methoxy-4-nitro-5-sulfo-phenyl)-2H-tetrazolium-5-carboxanilide (XTT, Sigma) was prepared, and 10 mM menadione (Sigma) in acetone was added to give a final menadione concentration of 1 μM. The XTT solution (100 μL) was added to each well containing a biofilm and to the empty column of wells. The plates were incubated for 1.5 hours at 37° C. to allow the C. albicans cells to reduce the XTT. Following incubation, 75 μL of XTT solution was removed from each well and put into a new 96-well plate to measure the absorbance at 490 nm. The reduction of growth for each concentration of β-peptide was calculated from
[formula] where A490^peptide is the average absorbance for wells containing a specified concentration of a β-peptide, A490^no drug is the average absorbance for wells with biofilms not treated with antifungal, and A490^XTT is the average absorbance for wells containing only XTT. At least three replicates were included for each combination of β-peptide and C. albicans strains. Assay for Biofilm Formation in the Presence of β-Peptide

C. albicans = conditions: cited from earlier work
[5] = tested on: Candida albicans (SC5314, ATCC 24433, ATCC 90028); conditions: from NCCLS document M27-A2; cited from earlier work
[6] = pH 7, physiological ionic strength

Compound: CC(C)[C@@H](CC(=O)N[C@@H](CCCCN)CC(=O)N[C@H]1CCCC[C@@H]1C(=O)N[C@H](CC(=O)N[C@@H](CCCCN)CC(=O)N[C@H]1CCCC[C@@H]1C(=O)N[C@H](CC(=O)N[C@@H](CCCCN)CC(N)=O)C(C)C)C(C)C)NC(=O)[C@H]1CCCC[C@@H]1NC(=O)C[C@@H](N)Cc1ccc(O)cc1 [β-peptide 1, β^3Tyr-(ACHC-β^3Val-β^3Lys)3]
- biofilm-preventing concentration relative to planktonic MIC [1]: two times its planktonic MIC
- concentration completely preventing biofilm formation [1]: 32 µg/mL
- Average MIC ([2]; average over three C. albicans strains, pH 7, physiological ionic strength, Table 1 prints no unit): 16 µg/mL
- antifungal activity in the planktonic NCCLS assay (in words) [2, 6]: showed activity in the planktonic assay
- % Hemolysis at MIC [3]: 21%
- concentration killing (nearly all cells in) pre-formed biofilms ([4]; pre-formed biofilms): 256 µg/mL

Compound: magainin 2
- concentration reducing C. albicans growth by 50% (C. albicans; pH 7, low ionic strength solutions): below 1 μg/ml
- activity against C. albicans (in words) (C. albicans; pH 7, physiologic ionic strength): inactive

Compound: β^3Tyr-(ACHC-β^3Val-β^3Lys)2
- antifungal activity in the planktonic NCCLS assay (in words) [2, 6]: lacking activity in the planktonic assay
- activity in the biofilm killing assay (in words) ([4]; pre-formed biofilms): low activity

Compound: β^3Tyr-ACHC-(ACHC-β^3Lys)3-ACHC-ACHC
- antifungal activity in the planktonic NCCLS assay (in words) [2, 6]: lacking activity in the planktonic assay
- activity in the biofilm killing assay (in words) ([4]; pre-formed biofilms): low activity

Compound: OC(Cn1cncn1)(Cn1cncn1)c1ccc(F)cc1F [fluconazole]
- MIC range [5]: 0.8 to 3.3 µM

Compound: CCCCCCCCCCCCCCC(=O)N[C@H](CC(=O)N[C@H]1CCCC[C@@H]1C(=O)N[C@H]1CCCC[C@@H]1C(=O)N[C@@H](CCCCN)CC(=O)N[C@H]1CCCC[C@@H]1C(=O)N[C@H]1CCCC[C@@H]1C(=O)N[C@@H](CCCCN)CC(=O)N[C@H]1CCCC[C@@H]1C(=O)N[C@H]1CCCC[C@@H]1C(=O)N[C@@H](CCCCN)CC(N)=O)Cc1ccc(O)cc1 [C15-β^3Tyr-(ACHC-ACHC-β^3Lys)3]
- antifungal activity in the planktonic NCCLS assay (in words) [2, 6]: lacking activity in the planktonic assay
- MIC ([2]; planktonic, strain not stated): > 128 µg/mL
- reduction in biofilm growth ([4]; at the highest concentration tested): barely surpassed this mark
- activity in the biofilm killing assay (in words) ([4]; pre-formed biofilms): low activity

Compound: C[C@@H]1[C@H](O)[C@@H](C)/C=C/C=C/C=C/C=C/C=C/C=C/C=C/[C@H](O[C@@H]2O[C@H](C)[C@@H](O)[C@H](N)[C@@H]2O)C[C@@H]2O[C@](O)(C[C@@H](O)C[C@@H](O)[C@H](O)CC[C@@H](O)C[C@@H](O)CC(=O)O[C@H]1C)C[C@H](O)[C@H]2C(=O)O [Amphotericin B]
- MIC range [5]: 0.3 to 2.2 µM
